Test system: human ADH
Experiment: cloned human ADH assay (NADH absorbance at 340 nm)
Format: biochemical
Conditions: for ADH inhibitory activity (%): 0.1 M glycine buffer pH 10, 2.4 mM NAD+, 33 mM ethanol
Procedure: ADH inhibitory activity of ajoene obtained in Example 1 was examined by means of a cloned human ADH assay wherein human ADH is treated with ajoene at different concentrations, and the results are shown in Table 1 below. Here, the ADH assay employed 0.1 M glycine buffer (pH 10) as a reaction buffer and 2.4 mM NAD^+ and 33 mM ethanol in a subtrate. ADH inhibitory activity was determined by measuring the absorbance of NADH at 340 nm using a microplate reader.

inhibitory concentration of 50% (IC50) on ADH activity (cloned human ADH, from Table 1): 0.9 µg/mL
Compound: C=CCSSC=CC[S+]([O-])CC=C (stereo not shown) [ajoene, 4,5,9-trithiadodeca-1,6,11-triene-9-oxide]
ADH inhibitory activity (%) (ajoene 0.1 μg/ml): 0%
ADH inhibitory activity (%) (ajoene 0.9 μg/ml): 50%
ADH inhibitory activity (%) (ajoene 1 μg/ml): 60%
ADH inhibitory activity (%) (ajoene 10 μg/ml): 85%
ADH inhibitory activity (%) (ajoene 50 μg/ml): 100%
ADH inhibitory activity (%) (ajoene 100 μg/ml): 100%
